Measurements: PubChem BioAssay AID1259407 (Chemical Carcinogenesis Research Information System (CCRIS), 2018)
Activity calls are given as the source filed them. The rule behind the calls is not given here.

Test system: CCRIS mutagenicity, Ames/micronucleus/aberration tests
Assay: CCRIS mutagenicity studies
[1] = Test System: AMES SALMONELLA TYPHIMURIUM, Strain/Indicator: TA98, Metabolic Activation: RAT, LIVER, S-9, AROCLOR 1254, Method: STANDARD PLATE
[2] = Test System: AMES SALMONELLA TYPHIMURIUM, Strain/Indicator: TA100, Metabolic Activation: RAT, LIVER, S-9, AROCLOR 1254, Method: STANDARD PLATE
[3] = Test System: MOUSE LYMPHOMA, Strain/Indicator: L5178Y (TK+/TK-), Metabolic Activation: NONE, Method: SUSPENSION/PLATE
[4] = Test System: AMES SALMONELLA TYPHIMURIUM, Strain/Indicator: TA98, Metabolic Activation: NONE, Method: STANDARD PLATE
[5] = Test System: AMES SALMONELLA TYPHIMURIUM, Strain/Indicator: TA98, Metabolic Activation: S-9, Method: STANDARD PLATE
[6] = Test System: AMES SALMONELLA TYPHIMURIUM, Strain/Indicator: TA100, Metabolic Activation: NONE, Method: STANDARD PLATE
[7] = Test System: AMES SALMONELLA TYPHIMURIUM, Strain/Indicator: TA100, Metabolic Activation: S-9, Method: STANDARD PLATE

SMILES: Cc1ccc2ccc3c(ccc4c5cccc(C)c5ccc43)c2c1
- mutagenic call (Test System: AMES SALMONELLA TYPHIMURIUM, Strain/Indicator: TA97, Metabolic Activation: RAT, LIVER, S-9, AROCLOR 1254, Method: STANDARD PLATE): inactive; negative
- mutagenic call [1]: inactive; negative
- mutagenic call [2]: inactive; negative
- mutagenic call (Test System: AMES SALMONELLA TYPHIMURIUM, Strain/Indicator: TA102, Metabolic Activation: RAT, LIVER, S-9, AROCLOR 1254, Method: STANDARD PLATE): inactive; negative
- mutagenic call (Test System: AMES SALMONELLA TYPHIMURIUM, Strain/Indicator: TA104, Metabolic Activation: RAT, LIVER, S-9, AROCLOR 1254, Method: STANDARD PLATE): inactive; negative
- mutagenic call (Test System: AMES SALMONELLA TYPHIMURIUM, Strain/Indicator: TA1537, Metabolic Activation: RAT, LIVER, S-9, AROCLOR 1254, Method: STANDARD PLATE): inactive; negative

SMILES: COc1cc([C@@H]2c3cc4c(cc3[C@@H](O[C@@H]3O[C@@H]5CO[C@@H](c6cccs6)O[C@H]5[C@H](O)[C@H]3O)[C@H]3COC(=O)[C@H]23)OCO4)cc(OC)c1O
- mutagenic call (Test System: MOUSE LYMPHOMA, Strain/Indicator: L5178Y (HPRT)/6-THIOGUANINE, Metabolic Activation: NONE, Method: FLUCTUATION TEST): inactive; negative
- mutagenic call (Test System: MOUSE LYMPHOMA, Strain/Indicator: L5178Y (TK+/TK-), Metabolic Activation: NONE): active; positive
- mutagenic call (Test System: MOUSE LYMPHOMA, Strain/Indicator: L5178Y (TK+/TK-), Metabolic Activation: NONE, Method: FLUCTUATION TEST): active; positive
- mutagenic call [3]: active; positive

SMILES: CN=NNC
- mutagenic call (Test System: AMES SALMONELLA TYPHIMURIUM, Strain/Indicator: TA1535, Metabolic Activation: NONE, Method: STANDARD PLATE): active; positive

SMILES: COC1(O[C@H]2CC[C@H]3[C@@H]4CC[C@H]5C[C@@H]6S[C@@H]6C[C@]5(C)[C@H]4CC[C@]23C)CCCC1
- mutagenic call [4]: inactive; negative
- mutagenic call [5]: inactive; negative
- mutagenic call [6]: inactive; negative
- mutagenic call [7]: inactive; negative
- mutagenic call (Test System: AMES SALMONELLA TYPHIMURIUM, Strain/Indicator: TA1537, Metabolic Activation: S-9, Method: STANDARD PLATE): inactive; negative
- mutagenic call (Test System: E. COLI, Strain/Indicator: WP2 (HCR), Metabolic Activation: NONE, Method: STANDARD PLATE): inactive; negative
- mutagenic call (Test System: E. COLI, Strain/Indicator: WP2 (HCR), Metabolic Activation: S-9, Method: STANDARD PLATE): inactive; negative

SMILES: COc1ccc2cc(CCC(C)=O)ccc2c1
- mutagenic call (Test System: AMES SALMONELLA TYPHIMURIUM, Strain/Indicator: TA97, Metabolic Activation: NONE, Method: STANDARD PLATE): inactive; negative
- mutagenic call (Test System: AMES SALMONELLA TYPHIMURIUM, Strain/Indicator: TA97, Metabolic Activation: S-9, Method: STANDARD PLATE): inactive; negative
- mutagenic call [4]: inactive; negative
- mutagenic call [5]: inactive; negative
- mutagenic call [6]: inactive; negative
- mutagenic call [7]: inactive; negative
- mutagenic call (Test System: AMES SALMONELLA TYPHIMURIUM, Strain/Indicator: TA102, Metabolic Activation: NONE, Method: STANDARD PLATE): inactive; negative
- mutagenic call (Test System: AMES SALMONELLA TYPHIMURIUM, Strain/Indicator: TA102, Metabolic Activation: S-9, Method: STANDARD PLATE): inactive; negative

SMILES: CCC(=O)N=c1sn(C(=O)CC)c2ccc([N+](=O)[O-])cc12
- mutagenic call [7]: active; positive

SMILES: CNc1ccc(Nc2c3ccccc3nc3ccccc23)cc1
- mutagenic call (Test System: AMES SALMONELLA TYPHIMURIUM, Strain/Indicator: TA1537, Metabolic Activation: NONE, Method: STANDARD PLATE): active; positive

SMILES: CN(C)CCCCl
- mutagenic call (Test System: AMES SALMONELLA TYPHIMURIUM, Strain/Indicator: TA98, Metabolic Activation: HAMSTER, LIVER, S-9, AROCLOR 1254, Method: STANDARD PLATE): inactive; negative
- mutagenic call [4]: inactive; negative
- mutagenic call [1]: inactive; negative
- mutagenic call (Test System: AMES SALMONELLA TYPHIMURIUM, Strain/Indicator: TA100, Metabolic Activation: HAMSTER, LIVER, S-9, AROCLOR 1254, Method: STANDARD PLATE): active; positive
- mutagenic call [6]: active; positive
- mutagenic call [2]: active; positive
- mutagenic call [3]: inactive; positive. reevaluation of results: negative
- mutagenic call (Test System: MOUSE LYMPHOMA, Strain/Indicator: L5178Y (TK+/TK-), Metabolic Activation: RAT, LIVER, S-9, AROCLOR 1254, Method: SUSPENSION/PLATE): active; positive. reevaluation of results: inconclusive

SMILES: CCCCCC(=O)N=c1sn(C(=O)CCCCC)c2ccc([N+](=O)[O-])cc12
- mutagenic call [7]: active; positive

SMILES: C=CC(=O)CC
- mutagenic call (Test System: AMES SALMONELLA TYPHIMURIUM, Strain/Indicator: TA100, Metabolic Activation: NONE, Method: PREINCUBATION): active; positive
- mutagenic call (Test System: AMES SALMONELLA TYPHIMURIUM, Strain/Indicator: TA100, Metabolic Activation: RAT, LIVER, S-9, AROCLOR, Method: PREINCUBATION): active; positive

SMILES: CCc1ccccc1NC(=O)c1csc([N+](=O)[O-])c1
- mutagenic call [4]: active; positive
- mutagenic call [6]: active; positive

SMILES: O.O.O.[Fe].[Fe]
- mutagenic call (Test System: AMES SALMONELLA TYPHIMURIUM, Strain/Indicator: TA97, Metabolic Activation: NONE, Method: PREINCUBATION): inactive; negative
- mutagenic call (Test System: AMES SALMONELLA TYPHIMURIUM, Strain/Indicator: TA97, Metabolic Activation: RAT, LIVER, S-9, AROCLOR 1254, Method: PREINCUBATION): inactive; negative
- mutagenic call (Test System: AMES SALMONELLA TYPHIMURIUM, Strain/Indicator: TA102, Metabolic Activation: NONE, Method: PREINCUBATION): inactive; negative
- mutagenic call (Test System: AMES SALMONELLA TYPHIMURIUM, Strain/Indicator: TA102, Metabolic Activation: RAT, LIVER, S-9, AROCLOR 1254, Method: PREINCUBATION): inactive; negative
